Read-outs that look alike come from different tables or passages of the source.
Columns and labels:
[1] = target: T1, L-selectin-lg fusion protein (Homo sapiens, UniProt P14151); test: LS 180 colon cancer cell adhesion to immobilized L-selectin-Ig; assay type: cell-based
T1 construct: Each selectin-lg contains the lectin domain, epidermal growth factor domain, and one (L-selectin-lg), two (P-selectin-lg) or six (E-selectin-lg) complement regulatory repeats; made in house
Method: Cell adhesion assays on immobilized selectin-lg were performed essentially as described (Nelson, R. M., et al., J. Clin. Invest., 91:1157, 1993; Nelson, R. M., et al., Symposia on Quant. Biol., 57:271, 1992). Briefly, Nunclon Terasaki Microwell plates were coated overnight with 5 μl/well of a 5 μg/ml solution of protein A (Chemicon, Temecula, Calif.) in 50 mM carbonate buffer, pH 9.5. Protein-A-coated plates were washed with Dulbecco's phosphate buffered saline (PBS), incubated for 1 hour with L-, P-, or E-selectin-lg fusion proteins in PBS (5-20 μg/ml), washed again, and blocked with PBS containing 1% human serum albumin (HSA). To measure inhibition of cell adhesion, 5 μl/well of lnsP6 in PBS was added to the selectin-lg coated plates and incubated for 30 min at […]. LS 180 cells were harvested by brief trypsinization and resuspended at 1.5×10^6 cells/ml in PBS containing 1% HSA; five μl/well of suspension was added, and incubated for 30 min at 4° C. After washing to remove unbound cells, adherent cells were fixed with glutaraldehyde (2.5% in PBS) and counted. Symbols and error bars represent mean number of adherent cells/mm^2 ±s.e.m., counted in quadruplicate wells in a single experiment representative of three. No LS 180 cell adhesion was detected on plates coated with protein A alone, or on plates coated with protein A-captured CD8-lg fusion protein.
LS 180 cells (ATCC, Rockville, Md.) were added to cell culture wells containing protein A-captured selectin-lg fusion proteins and incubated for 30 min at 4° C. to allow adhesion. The plates were washed to remove unbound cells and adherent cells were counted microscopically. To determine adhesion blocking activity, InsP6 at the indicated concentrations was added to selectin-lg-coated wells 30 min prior to addition of LS 180 cells.

[2] = target: T1, L-selectin-lg fusion protein; test: Competition ELISA: binding of L-selectin-Ig to immobilized BSA-sLe^x
Description: Selectin-lg fusion proteins are recombinant chimeric molecules containing extracellular regions of selectins coupled to the hinge, CH2, and CH3 regions of human IgG1 (Aruffo, A., et al., Cell, 67:35, 1991; Walz, G., et al., Science, 250:1132, 1990). Each selectin-lg contains the lectin domain, epidermal growth factor domain, and one (L-selectin-lg), two (P-selectin-lg) or six (E-selectin-lg) complement regulatory repeats of the parent molecules. DNAs encoding selectin-Ig inserted in pCDM7 allowed transient expression of recombinant proteins in COS cells as previously described (Seed, B., et al., Proc. Natl. Acad. Sci., U.S.A., 84:3365, 1987; Aruffo, A., Current Protocols In Molecular Biology, eds. Ausubel, F. M., et al, 16:13.1, Greene Publishing Associates and Wiley-lnterscience, New York, N.Y., 1992). These DNAs were also ligated into pNUT (Palmiter, R. D., et al, Cell, 50:435, 1987) for amplification and stable expression in BHK cells. The fusion proteins were affinity purified from culture media using protein A (Pierce Chemical Company, Rockford, Ill.) or protein G (Pharmacia, Piscataway, N.J.) Sepharose, as previously described (Aruffo, A., et al., Cell, 67:35, 1991; Aruffo, A., Current Protocols In Molecular Biology, eds. Ausubel, F. M., et al, supra, 1992). Competition binding ELISAs using P- and E-selectin-lg were performed essentially as described (Nelson, R. M., et al., J. Clin. […] Selectin concentrations were from 10 to 30 nM. […] To increase L-selectin binding, an assay similar to that previously described was used (Foxall, C., et al., J. Cell Biol., 117:895, 1992), in which the L-selectin-lg (10-20 nM) was allowed to form aggregates with HRP-conjugated anti-lg antibody for 30 minutes prior to addition of inositols and incubation on the BSA-sLe^x -coated plate. IC50 values were calculated by fitting binding data to the equation: fraction of maximal binding=IC50 […] using nonlinear least squares analysis software (Origin, Microcal Inc, Northampton, Mass.). InsP6 (dodecasodium salt), InsS6 (hexapotassium salt), myo-inositol 1 monophosphate (cyclohexylammonium salt), and myo-inositol were from Sigma Chemical Company (St. Louis, Mo.). Stock solutions were prepared daily in 0.9% NaCl and sterilized by 0.22 μm filtration. InsP6 solutions were adjusted at pH 7.4 with HCl.
L-, P-, or E-selectin-lg fusion proteins were incubated for 2-3 hours on microtiter plates coated with the neoglycoprotein BSA-sLe^x, the plates washed, and bound selectin-lg was detected using a peroxidase-conjugated antibody directed against the lg portion and a chromogenic substrate. To determine blocking activity, solution-phase lnsP6 (.circle-solid.), InsS6 (.largecircle.), or inositol (.box-solid.) at the indicated concentrations were added to the solutions containing selectin-Ig fusion proteins prior to transfer to microtiter plates (competition ELISA).

Row | inhibition at 4000 µM ([1]; LS180, 4 mM, single experiment) [%] | IC50 ([2]; BSA-sLe^x competition ELISA, read-out: IC50, L-selectin binding) [µM] | blocking of L-selectin-Ig binding ([2]; BSA-sLe^x competition ELISA) | SMILES | LS 180 adhesion to L-selectin-Ig [1] | IC50 [2] [µM] | blocking of L-selectin-Ig at reduced Ca^2+ ([2]; Ca^2+ reduced to 0.15 mM)
1 | – | – | – | O=P(O)(O)O[C@H]1[C@H](OP(=O)(O)O)[C@@H](OP(=O)(O)O)[C@H](OP(=O)(O)O)[C@@H](OP(=O)(O)O)[C@H]1OP(=O)(O)O [InsP6, myo-inositol hexakisphosphate] | blocked the adhesion of LS 180 cells | 3.1 ± 0.5 | not enhanced
2 | ~45 | 210 ± 110 | – | O=S(=O)(O)O[C@H]1[C@H](OS(=O)(=O)O)[C@@H](OS(=O)(=O)O)[C@H](OS(=O)(=O)O)[C@@H](OS(=O)(=O)O)[C@H]1OS(=O)(=O)O [InsS6, myo-inositol hexakissulfate] | – | – | –
3 | – | – | not myo-isositol, blocked binding | O[C@H]1[C@H](O)[C@@H](O)[C@H](O)[C@@H](O)[C@H]1O [myo-inositol, reference compound] | inactive at concentrations up to 5 mM | – | –
